From article PMC9139979, “Features of ZED1227: The First-In-Class Tissue Transglutaminase Inhibitor Undergoing Clinical Evaluation for the Treatment of Celiac Disease” (Cells, 2022)
Square brackets hold non-standard residues; d marks the D form. Peptide text beside a SMILES is read from it. * marks the point of attachment. Nle(5E-ene,6-CO2Et) = CCOC(=O)/C=C/CC[C@H](N)C(=O)O; DON = [N-]=[N+]=CC(=O)CC[C@H](N)C(=O)O; Cbz = O=C(OCc1ccccc1)*

Assays:
[1] = biological target: T1, hTG2 (Homo sapiens, UniProt P21980); assay: Fluorescent transamidation assay (DCC-assay), hTG2; format: biochemical; conditions: for IC50: recombinant human TG2, transamidation assay, apparent IC50 of irreversible inhibitor, read-out: App. IC50 hTG2; for Fold less potent compared to ZED1227 (hTG2): same transamidation assay
T1 construct: purchased Zedira T022
T1 sequence (P21980 1-687): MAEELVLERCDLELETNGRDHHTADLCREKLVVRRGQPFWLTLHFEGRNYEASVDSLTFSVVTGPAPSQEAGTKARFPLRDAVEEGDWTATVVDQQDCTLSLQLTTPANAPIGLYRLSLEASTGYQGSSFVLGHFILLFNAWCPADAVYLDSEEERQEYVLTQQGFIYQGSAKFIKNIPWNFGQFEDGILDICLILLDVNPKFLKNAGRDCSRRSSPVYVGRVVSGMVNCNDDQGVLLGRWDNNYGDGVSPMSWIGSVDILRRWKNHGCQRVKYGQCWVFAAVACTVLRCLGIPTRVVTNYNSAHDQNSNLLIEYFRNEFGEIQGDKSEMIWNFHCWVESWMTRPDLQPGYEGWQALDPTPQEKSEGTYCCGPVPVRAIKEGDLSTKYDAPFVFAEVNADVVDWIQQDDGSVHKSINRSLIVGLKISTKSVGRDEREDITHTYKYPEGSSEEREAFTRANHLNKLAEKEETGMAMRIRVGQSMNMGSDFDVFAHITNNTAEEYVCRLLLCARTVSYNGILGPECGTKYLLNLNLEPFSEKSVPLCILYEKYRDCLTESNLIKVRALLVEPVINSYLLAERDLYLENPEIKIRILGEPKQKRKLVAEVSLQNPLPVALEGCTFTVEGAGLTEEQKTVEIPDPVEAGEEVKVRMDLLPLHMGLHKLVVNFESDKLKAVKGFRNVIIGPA
Procedure: Inhibition data were determined using the fluorescent transamidation assay (dansylcadaverine incorporation into glutamine-donor substrate N,N-dimethyl casein, DCC-assay). Briefly, to 15 μL of ZED1227 solution (dissolved and serial diluted in 2% (v/v) DMSO/assay buffer), 285 μL assay buffer [47.5 mM tris(hydroxymethyl)aminomethane, 9.5 mM CaCl2, 9.5 mM glutathione, 2.4% (v/v) glycerol, 190 mM NaCl, pH 8.0] containing dansylcadaverine (15.9 μM), N,N-dimethyl casein (3.8 μM) and the indicated recombinant transglutaminase enzyme [0.95 μg/mL hTG1 (T035), 0.81 μg/mL hTG2 (T022), 0.83 μg/mL hTG6 (T021), all from Zedira] were added, mixed and the kinetic measurement started immediately. In the case of hFXIII-A2 (0.83 μg/mL, T027, Zedira), the assay buffer contained human α-thrombin (5.2 × 10^−3 U/μL, T056, Zedira). The mixture was incubated for 20 min at room temperature to activate FXIII. In the case of hTG3a (0.81 μg/mL, T013, Zedira), full enzymatic activity was obtained by incubation for 80 min at 37 °C in assay buffer before addition of the inhibitor and start of the kinetics.
Fluorescence emission was continuously monitored for 30 min at λem = 500 nm (λex = 330 nm) and 37 °C using a CLARIOstar fluorescence plate reader (BMG Labtech, Ortenberg, Germany). All measurements were performed in triplicate. The respective IC50 (and IC90 for TG2) values were calculated by non-linear regression using the MARS software package (BMG Labtech). An irreversible-acting inhibitor, such as ZED1227, should, correctly, be characterized by the second-order rate constant k2nd, as detailed by Keillor [46]. However, such data are rather abstract and difficult to comprehend.
To facilitate comparability during lead structure optimization and to roughly estimate concentrations needed at the target site, the apparent IC50 values (calculated by four-parameter non-linear fit by MARS software) for irreversible inhibitors are more instructive and are therefore reported. Further, we report the potency of commercially available reference inhibitors Z006 (“Z-DON”), Z013 (ZED754), and T101 (all Zedira). To gain deeper mechanistic insight, we discuss the second-order rate constants (k2nd) published for Z006 and ZED754 in relation to their respective IC50 values.

[2] = biological target: TG2; set-up: method as in PMID 32045569; conditions: TG2 catalyzed hydrolysis of Z-Glu(HMC)-Gly-OH at pH 6.5; cited from earlier work

| SMILES | IC50 [1] | Fold less potent compared to ZED1227 (hTG2) [1] | Ki [2] | k2nd (second-order rate constant) [2] |
| --- | --- | --- | --- | --- |
| CC(=O)CSc1n(C)c(C)c(C)[n+]1C.[Cl-] [T101] | 1780 nM | 33 fold |  |  |
| COC(=O)[C@H](CC(C)C)NC(=O)[C@@H]1CCCN1C(=O)[C@@H](NC(=O)[C@H](CCC(=O)C=[N+]=[N-])NC(=O)OCc1ccccc1)C(C)C [Z006, Z-DON-Val-Pro-Leu-OMe] (Cbz-[DON]VPL-OMe) | 70 nM |  | 96 nM | 191,000 M^−1s^−1 |
| CCOC(=O)/C=C/CC[C@H](NC(=O)OCc1ccccc1)C(=O)N[C@@H](CCC(N)=O)C(=O)N1CCC[C@H]1C(=O)N[C@@H](CC(C)C)C(=O)OC [ZED754] (Cbz-[Nle(5E-ene,6-CO2Et)]QPL-OMe) | 182 nM | about 3.5 fold | 450 nM | 51,500 M^−1s^−1 |
